Values joined by “and” are separate entries in the source; they are usually repeats but may differ in a detail not shown here. Equal values may be shown once.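 Protocol summary: plate cells (96-well), add compound at 5 concentrations, incubate 48 h, interpolate endpoints linearly. GI50 marks 50% less growth. TGI: concentration producing complete growth inhibition.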
Legend:
Assay in all cases: NCI anticancer screen, dose series, 48 h
SF-268 CNS = test system: SF-268 CNS
BT-549 breast = test system: BT-549 breast
SR leukemia = test system: SR leukemia
MALME-3M melanoma = test system: MALME-3M melanoma
MDA-MB-231 breast = test system: MDA-MB-231 breast
NCI/ADR-RES ovarian = test system: NCI/ADR-RES ovarian
SK-OV-3 ovarian = test system: SK-OV-3 ovarian
OVCAR-5 ovarian = test system: OVCAR-5 ovarian
HOP-62 NSCLC = test system: HOP-62 NSCLC
SK-MEL-2 melanoma = test system: SK-MEL-2 melanoma

| Compound | GI50 (SF-268 CNS) | TGI (SF-268 CNS) | GI50 (BT-549 breast) | TGI (BT-549 breast) | GI50 (SR leukemia) | TGI (SR leukemia) [µM] | GI50 (MALME-3M melanoma) | TGI (MALME-3M melanoma) | GI50 (MDA-MB-231 breast) | TGI (MDA-MB-231 breast) | GI50 (NCI/ADR-RES ovarian) | TGI (NCI/ADR-RES ovarian) | GI50 (SK-OV-3 ovarian) | TGI (SK-OV-3 ovarian) | GI50 (OVCAR-5 ovarian) | TGI (OVCAR-5 ovarian) | GI50 (HOP-62 NSCLC) | TGI (HOP-62 NSCLC) | GI50 (SK-MEL-2 melanoma) | TGI (SK-MEL-2 melanoma) |
| --- | --- | --- | --- | --- | --- | --- | --- | --- | --- | --- | --- | --- | --- | --- | --- | --- | --- | --- | --- | --- |
| O=C(COc1ccc(Cl)cc1Cl)NNc1ccc([N+](=O)[O-])cc1 | 36.9 µM | > 100 µM | 24 µM | 52 µM | 49.9 µM | > 100 | 23.6 µM | 57.1 µM | 30.8 µM | > 100 µM | 84 µM | > 100 µM | 24 µM | 55 µM | > 100 µM | > 100 µM | 19.7 µM | 38.6 µM | 22 µM | 39.7 µM |
| O=C(Nc1c(Cl)cccc1Cl)Oc1cccc2cccnc12 | 5.46 µM | > 100 µM | 8.85 µM | 90 µM | 3.59 µM | 30.4 | 6.19 µM | 81 µM | 4.24 µM | 25.3 µM | 2.73 µM | 27.9 µM | 4.62 µM | 39.4 µM | 5.01 µM | > 100 µM | 5.63 µM | 21 µM |  |  |
| S=C1NC(c2ccccc2)NC(c2ccccc2)S1 (centres undefined) |  | > 100 µM |  | > 100 µM |  | > 100 |  | > 100 µM |  | > 100 µM |  | > 100 µM |  | > 100 µM |  | > 100 µM |  | > 100 µM |  | > 100 µM |
| CC(=O)Nc1ccc2c(c1)[nH]c(=O)c1cc(NC(C)=O)ccc12 | > 100 µM | > 100 µM | > 100 µM | > 100 µM | 15.5 µM | 53.4 | > 100 µM | > 100 µM | 90.2 µM | > 100 µM | > 100 µM | > 100 µM | > 100 µM | > 100 µM | > 100 µM | > 100 µM | > 100 µM | > 100 µM | > 100 µM | > 100 µM |
| Clc1ccc(Nc2nnc(COc3ccccc3)c3ccccc23)cc1 | 2.23 µM | 12.9 µM | 2.05 µM | 6.65 µM | 1.23 µM | 11.2 | 1.38 µM | 7.3 µM | 1.28 µM | 6.9 µM | 2.62 µM | 16.6 µM | 2.38 µM | 9.96 µM | 3.88 µM | 15.4 µM | 2.51 µM | 7.74 µM | 0.971 µM | 5.13 µM |
| CC1NCCC(CC(=O)O)C1CC(=O)O (centres undefined) |  | > 100 µM |  | > 100 µM |  | > 100 |  | > 100 µM |  | > 100 µM |  | > 100 µM |  | > 100 µM |  | > 100 µM |  | > 100 µM |  | > 100 µM |
| C[C@H]1O[C@@H](O[C@H]2[C@@H](O)C[C@H](O[C@H]3[C@@H](O)C[C@H](O[C@H]4CC[C@]5(C)C6CC[C@]7(C)[C@@H](C8=CC(=O)OC8)CC[C@]7(O)C6CC[C@@H]5C4)O[C@@H]3C)O[C@@H]2C)C[C@H](O)[C@@H]1O (some centres undefined) | 0.0159 µM | 0.0578 µM | 0.0163 µM | 0.0508 µM |  | 0.0512 | 0.019 µM | 0.0783 µM | 0.0621 µM | 0.353 µM | 0.0144 µM | 0.0435 µM | 0.019 µM | 0.067 µM | 0.0383 µM | 0.111 µM | 0.0118 µM | 0.0295 µM | 0.0192 µM | 0.0675 µM |
| C=C1CC2(CC(c3ccccc3C)OC(c3ccccc3C)C2)OC1=O (centres undefined) |  | 3.6 µM |  | 4.09 µM |  | > 26.8 |  | 3.29 µM |  | 3.17 µM |  | 14.3 µM |  | 24.2 µM |  | 26.5 µM |  | 26.8 µM |  | 4.13 µM |
| C/C=C1/CN2CCC34c5ccccc5N5C(=O)C(C6CC78c9ccccc9N9C(=O)C=CC(C%10CC7N6C/C%10=C/C)C98)=CC(C1CC23)C54 (centres undefined) | 4.3 µM | 17.7 µM and 17.2 µM |  | 16.4 µM and 21.9 µM |  | 50 |  | 14.5 µM | 13.4 µM | 8.36 µM and 29 µM | 2.57 µM | 50 µM and 10.4 µM | 15.3 µM | 19.1 µM and 29.7 µM | 19.3 µM | 19.9 µM and 34.6 µM |  | 20.5 µM and 23.3 µM | 12.3 µM | 13.5 µM and 25.5 µM |
| COc1ccc(COc2ccc(Cc3cnc(N)nc3N)cc2OC)cc1 | > 25 µM | > 25 µM | 12.1 µM | > 25 µM | 24.3 µM | > 25 | > 5.1 µM | > 25 µM | 23.1 µM | > 25 µM | > 19 µM | > 25 µM | > 25 µM | > 25 µM | > 25 µM | > 25 µM | > 18.4 µM | > 25 µM | > 25 µM | > 25 µM |
| O=C(Nc1ccc([N+](=O)[O-])cc1Cl)c1cc(Cl)ccc1O | 0.152 µM and 0.317 µM |  | 0.105 µM and 0.156 µM | 0.344 µM and 0.647 µM | 0.145 µM and 0.134 µM | 0.761 | 0.101 µM and 0.194 µM | 0.338 µM and 0.744 µM | 0.11 µM and 0.162 µM | 0.461 µM and 0.593 µM | 0.137 µM and 0.231 µM | 0.536 µM and 1.35 µM | 0.15 µM and 0.234 µM | 0.66 µM | 0.249 µM and 0.373 µM | 50 µM and > 95.5 µM | 0.149 µM and 0.262 µM | 0.469 µM | 0.111 µM and 0.167 µM | 0.268 µM and 0.443 µM |
| CC#CC#C/C=C1/C=CC2(CCCCO2)O1 (centres undefined) |  | > 100 µM |  | > 100 µM |  | > 100 |  | > 100 µM |  | > 100 µM |  | > 100 µM |  | > 100 µM |  | > 100 µM |  |  |  | > 100 µM |
| Cc1cc(C(=O)NOCCO)c(Nc2ccc(I)cc2F)n(C)c1=O | > 100 µM | > 100 µM | > 100 µM | > 100 µM | > 10 µM and 29.5 µM | > 100 | < 0.01 µM | 0.0115 µM and < 0.01 µM | 0.0075 µM and < 0.01 µM | > 100 µM | > 90.6 µM | > 100 µM | > 10 µM and 51.6 µM | > 100 µM | 0.00163 µM and < 0.0168 µM | > 100 µM |  | > 100 µM | 0.00299 µM and < 0.01 µM |  |
| Nc1[nH]c(=S)[nH]c(=O)c1N=Nc1c(Br)cc(S(N)(=O)=O)cc1Br |  | > 100 µM |  | > 100 µM |  | > 100 |  | > 100 µM |  | > 100 µM |  | > 100 µM |  | > 100 µM |  | > 100 µM |  | > 100 µM |  | > 100 µM |
| Cc1cccc(Nc2ncc(-c3ccccc3)o2)c1 | > 25 µM | > 25 µM | > 25 µM | > 25 µM | > 25 µM | > 25 | > 25 µM | > 25 µM | > 18.8 µM | > 25 µM | > 25 µM | > 25 µM | > 25 µM | > 25 µM | > 25 µM | > 25 µM | > 25 µM | > 25 µM | > 25 µM | > 25 µM |

— PubChem BioAssay (NCI)
